Measured values: patent US12617752B2, “Rapidly metabolized lipid compound” (Beijing Jitai Life Sciences Ltd, priority 2023, dated 2026)

Key:
HEK293T cells [1] = assay: Cytotoxicity testing with CCK-8 reagent; format: cell-based, human; conditions: CCK-8, 24 h, relative to PBS negative control
Method: (§1) The delivery effect and safety of nanoparticles encapsulated with luciferase mRNA were evaluated at the cellular level in vitro. The cells used in the assay were human embryonic kidney cells 293 (HEK293T cells) cultured in DMEM (Dulbecco's Modified Eagle Medium) (purchased from Thermo Fisher) containing 10% fetal bovine serum and 5% penicillin-streptomycin double antibiotics at a indoor temperature of 37° C. and a CO2 concentration of 5%. The cells were uniformly dispersed and spread in 48-well plates, and incubated in the incubator for 24 h. Then a solution of the lipid nanoparticles encapsulated with luciferase mRNA were added. After 24 h, the cells were lysed, and the intracellular expression intensity and relative light units (RLU) of luciferase in each type of lipid nanoparticles were measured with a luciferase detection reagent (purchased from Promega). The higher the intensity of expression, the higher the delivery efficiency of the lipid material at the cellular level. […] The absorbance values were read on a multifunctional microplate reader at an absorbance band of 450 nm. The ratio of the absorbance value of the nanoparticle-treated cells to that of the negative control was used as a characterization parameter for cell viability.

C57BL/6 mice = assay: In vivo delivery of luciferase mRNA lipid nanoparticles in mice (bioluminescence imaging); conditions: intravenous, single dose 0.5 mg/kg luciferase mRNA
Method in brief: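 Female C57BL/6 mice, 6-8 weeks old, received luciferase mRNA lipid nanoparticles as a single intravenous dose of 0.5 mg/kg mRNA. At 6 h, D-luciferin given intraperitoneally; 10 min later, mice were imaged under isoflurane anaesthesia. Values are group mean fluorescence intensity and total photon count.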

[2] = Particle size and PDI of lipid nanoparticles by dynamic light scattering; format: physicochemical; conditions: lipid nanoparticles with luciferase mRNA; ionizable lipid/cholesterol/DSPC/DMG-PEG2000 50/38.5/10/1.5 mol%
Method in brief: (§2)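 LNPs of ionizable lipid/cholesterol/phospholipid/PEG-lipid (50/38.5/10/1.5 mol%, N/P 6) were formed by microfluidic mixing with mRNA in pH 4.5 acetate, then buffer-exchanged by ultrafiltration. Size and PDI were measured by DLS. Encapsulation came from RiboGreen fluorescence (485/528 nm) in TE pH 7.5, with and without 0.5% Triton at 37 °C for 30 min.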

HEK293T cells [3] = assay: In vitro delivery efficiency of luciferase mRNA nanoparticles (luciferase expression); format: cell-based, human; conditions: 24 h
Method: as §1

[4] = Encapsulation efficiency of lipid nanoparticles (Quant-it RiboGreen RNA Assay); format: physicochemical; conditions: lipid nanoparticles with luciferase mRNA
Method in brief: as §2

Particle size (nm) [2]: 96.83 nm
Particle-size distribution (PDI) [2]: 0.04
Encapsulation efficiency (%) [4]: 95.62%
SMILES: CCCCC/C=C\C/C=C\CCCCCCCCC(CCCCCCCC/C=C\C/C=C\CCCCC)OC(=O)CCCN(C)C [MC3, DLin-MC3-DMA, reference compound]
Cell viability (%) (HEK293T cells [1]): 97.84%
Total photon count in vivo at 6 hours after administration (Total Flux) (C57BL/6 mice): 8.04E+09
Luciferase luminescence of cell lysate (HEK293T cells [3]): 2.95E+06 RLU
